Source: patent US20140357512A1, “HISTONE DEACETYLASE (HDAC) BIOMARKERS IN MULTIPLE MYELOMA” (priority 2013, published 2014)

Test system: human myeloma cell line MM.1S
Assay: Biological pathway analysis of SILAC biomarker peptides against pathway database (broadinstitute gsea)
Experimental: Once biomarker peptides are identified for a specific drug by the SILAC method, the biomarker peptides may be compared to peptides/proteins in a biological pathway database in order to identify major biological pathways or functions implicated by the drug's action. A preferred pathway analysis website is at www dot broadinstitute dot org/gsea/index dot jsp.
This example describes the biological pathway analysis that was performed on each of Compound A, Compound B, and Tubastatin A.
Once biomarker peptides were identified for a specific drug (either Compound A, Compound B, or Tubastatin A) by the SILAC method in Example 1, the biomarker peptides were compared to peptides/proteins in the biological pathway database at www dot broadinstitute dot org/gsea/index dot jsp in order to identify major biological pathways or functions implicated by the drug's action.

## CN1CCc2c(c3ccccc3n2Cc2ccc(C(=O)NO)cc2)C1 [Tubastatin A, reference compound]
Pathway_size 48
  Observed: number of genes in pathway REACTOME_PACKAGING_OF_TELOMERE_ENDS: 26
  Ratio observed/pathway size, REACTOME_PACKAGING_OF_TELOMERE_ENDS: 0.5417
Pathway_size 61
  Observed: number of genes in pathway REACTOME_RNA_POL_I_PROMOTER_OPENING: 40
  Ratio observed/pathway size, REACTOME_RNA_POL_I_PROMOTER_OPENING: 0.6557
Pathway_size 64
  Observed: number of genes in pathway REACTOME_DEPOSITION_OF_NEW_CENPA_CONTAINING_NUCLEOSOMES_AT_THE_CENTROMERE: 27
  Ratio observed/pathway size, REACTOME_DEPOSITION_OF_NEW_CENPA_CONTAINING_NUCLEOSOMES_AT_THE_CENTROMERE: 0.4219
Pathway_size 70
  Observed: number of genes in pathway GCM_TPT1: 28
  Ratio observed/pathway size, GCM_TPT1: 0.4
Pathway_size 71
  Observed: number of genes in pathway REACTOME_MEIOTIC_SYNAPSIS: 27
  Ratio observed/pathway size, REACTOME_MEIOTIC_SYNAPSIS: 0.3803
Pathway_size 75
  Observed: number of genes in pathway REACTOME_TELOMERE_MAINTENANCE: 26
  Ratio observed/pathway size, REACTOME_TELOMERE_MAINTENANCE: 0.3467
Pathway_size 80
  Observed: number of genes in pathway STRUCTURAL_CONSTITUENT_OF_RIBOSOME: 28
  Ratio observed/pathway size, STRUCTURAL_CONSTITUENT_OF_RIBOSOME: 0.35
Pathway_size 81
  Observed: number of genes in pathway MIPS_RIBOSOME_CYTOPLASMIC: 32
  Observed: number of genes in pathway REACTOME_AMYLOIDS: 40
  Ratio observed/pathway size, MIPS_RIBOSOME_CYTOPLASMIC: 0.3951
  Ratio observed/pathway size, REACTOME_AMYLOIDS: 0.4938
Pathway_size 84
  Observed: number of genes in pathway REACTOME_MEIOTIC_RECOMBINATION: 41
  Ratio observed/pathway size, REACTOME_MEIOTIC_RECOMBINATION: 0.4881
Pathway_size 86
  Observed: number of genes in pathway REACTOME_RNA_POL_I_TRANSCRIPTION: 40
  Ratio observed/pathway size, REACTOME_RNA_POL_I_TRANSCRIPTION: 0.4651
Pathway_size 88
  Observed: number of genes in pathway KEGG_RIBOSOME: 33
  Ratio observed/pathway size, KEGG_RIBOSOME: 0.375
Pathway_size 102
  Observed: number of genes in pathway MORF_TPT1: 32
  Ratio observed/pathway size, MORF_TPT1: 0.3137
Pathway_size 104
  Observed: number of genes in pathway MIPS_NOP56P_ASSOCIATED_PRE_RRNA_COMPLEX: 33
  Ratio observed/pathway size, MIPS_NOP56P_ASSOCIATED_PRE_RRNA_COMPLEX: 0.3173
Pathway_size 112
  Observed: number of genes in pathway REACTOME_MEIOSIS: 42
  Ratio observed/pathway size, REACTOME_MEIOSIS: 0.375
Pathway_size 116
  Observed: number of genes in pathway GCM_NPM1: 36
  Ratio observed/pathway size, GCM_NPM1: 0.3103
Pathway_size 119
  Observed: number of genes in pathway GNF2_DAP3: 30
  Observed: number of genes in pathway REACTOME_RNA_POL_I_RNA_POL_III_AND_MITOCHONDRIAL_TRANSCRIPTION: 40
  Ratio observed/pathway size, GNF2_DAP3: 0.2521
  Ratio observed/pathway size, REACTOME_RNA_POL_I_RNA_POL_III_AND_MITOCHONDRIAL_TRANSCRIPTION: 0.3361
Pathway_size 121
  Observed: number of genes in pathway GNF2_EIF3S6: 33
  Ratio observed/pathway size, GNF2_EIF3S6: 0.2727
Pathway_size 124
  Observed: number of genes in pathway GCM_ACTG1: 34
  Ratio observed/pathway size, GCM_ACTG1: 0.2742
Pathway_size 138
  Observed: number of genes in pathway MORF_ACTG1: 39
  Ratio observed/pathway size, MORF_ACTG1: 0.2826
Pathway_size 139
  Observed: number of genes in pathway KEGG_SYSTEMIC_LUPUS_ERYTHEMATOSUS: 47
  Ratio observed/pathway size, KEGG_SYSTEMIC_LUPUS_ERYTHEMATOSUS: 0.3381
Pathway_size 145
  Observed: number of genes in pathway REACTOME_PEPTIDE_CHAIN_ELONGATION: 32
  Ratio observed/pathway size, REACTOME_PEPTIDE_CHAIN_ELONGATION: 0.2207
Pathway_size 154
  Observed: number of genes in pathway MORF_NME2: 39
  Ratio observed/pathway size, MORF_NME2: 0.2532
Pathway_size 161
  Observed: number of genes in pathway REACTOME_INFLUENZA_VIRAL_RNA_TRANSCRIPTION_AND_REPLICATION: 33
  Ratio observed/pathway size, REACTOME_INFLUENZA_VIRAL_RNA_TRANSCRIPTION_AND_REPLICATION: 0.205
Pathway_size 162
  Observed: number of genes in pathway MORF_NPM1: 43
  Ratio observed/pathway size, MORF_NPM1: 0.2654
Pathway_size 166
  Observed: number of genes in pathway REACTOME_3_UTR_MEDIATED_TRANSLATIONAL_REGULATION: 32
  Ratio observed/pathway size, REACTOME_3_UTR_MEDIATED_TRANSLATIONAL_REGULATION: 0.1928
Pathway_size 167
  Observed: number of genes in pathway REACTOME_NONSENSE_MEDIATED_DECAY_ENHANCED_BY_THE_EXON_JUNCTION_COMPLEX: 32
  Ratio observed/pathway size, REACTOME_NONSENSE_MEDIATED_DECAY_ENHANCED_BY_THE_EXON_JUNCTION_COMPLEX: 0.1916
Pathway_size 170
  Observed: number of genes in pathway REACTOME_SRP_DEPENDENT_COTRANSLATIONAL_PROTEIN_TARGETING_TO_MEMBRANE: 39
  Ratio observed/pathway size, REACTOME_SRP_DEPENDENT_COTRANSLATIONAL_PROTEIN_TARGETING_TO_MEMBRANE: 0.2294
Pathway_size 195
  Observed: number of genes in pathway REACTOME_INFLUENZA_LIFE_CYCLE: 37
  Ratio observed/pathway size, REACTOME_INFLUENZA_LIFE_CYCLE: 0.1897
Pathway_size 197
  Observed: number of genes in pathway MORF_ANP32B: 38
  Ratio observed/pathway size, MORF_ANP32B: 0.1929
Pathway_size 207
  Observed: number of genes in pathway REACTOME_TRANSCRIPTION: 45
  Ratio observed/pathway size, REACTOME_TRANSCRIPTION: 0.2174
Pathway_size 211
  Observed: number of genes in pathway REACTOME_TRANSLATION: 39
  Ratio observed/pathway size, REACTOME_TRANSLATION: 0.1848
Pathway_size 238
  Observed: number of genes in pathway MORF_UBE2I: 43
  Ratio observed/pathway size, MORF_UBE2I: 0.1807
Pathway_size 241
  Observed: number of genes in pathway MODULE_32: 36
  Ratio observed/pathway size, MODULE_32: 0.1494
Pathway_size 254
  Observed: number of genes in pathway MORF_HDAC1: 37
  Ratio observed/pathway size, MORF_HDAC1: 0.1457
Pathway_size 262
  Observed: number of genes in pathway MORF_DEK: 39
  Ratio observed/pathway size, MORF_DEK: 0.1489
Pathway_size 268
  Observed: number of genes in pathway MORF_RAN: 46
  Ratio observed/pathway size, MORF_RAN: 0.1716
Pathway_size 318
  Observed: number of genes in pathway MODULE_151: 49
  Ratio observed/pathway size, MODULE_151: 0.1541
Pathway_size 320
  Observed: number of genes in pathway MODULE_83: 50
  Ratio observed/pathway size, MODULE_83: 0.1562
Pathway_size 338
  Observed: number of genes in pathway MODULE_114: 49
  Ratio observed/pathway size, MODULE_114: 0.145
Pathway_size 389
  Observed: number of genes in pathway HSIAO_HOUSEKEEPING_GENES: 68
  Ratio observed/pathway size, HSIAO_HOUSEKEEPING_GENES: 0.1748
Pathway_size 429
  Observed: number of genes in pathway MOOTHA_HUMAN_MITODB_6_2002: 46
  Ratio observed/pathway size, MOOTHA_HUMAN_MITODB_6_2002: 0.1072
Pathway_size 496
  Observed: number of genes in pathway REACTOME_METABOLISM_OF_PROTEINS: 56
  Ratio observed/pathway size, REACTOME_METABOLISM_OF_PROTEINS: 0.1129
Pathway_size 841
  Observed: number of genes in pathway MARTENS_TRETINOIN_RESPONSE_DN: 63
  Ratio observed/pathway size, MARTENS_TRETINOIN_RESPONSE_DN: 0.07491
Pathway_size 870
  Observed: number of genes in pathway GRADE_COLON_CANCER_UP: 62
  Ratio observed/pathway size, GRADE_COLON_CANCER_UP: 0.07126
Pathway_size 1102
  Observed: number of genes in pathway DANG_BOUND_BY_MYC: 68
  Ratio observed/pathway size, DANG_BOUND_BY_MYC: 0.06171
Pathway_size 1383
  Observed: number of genes in pathway CYTOPLASMIC_PART: 67
  Ratio observed/pathway size, CYTOPLASMIC_PART: 0.04845
Pathway_size 1651
  Observed: number of genes in pathway PUJANA_BRCA1_PCC_NETWORK: 84
  Ratio observed/pathway size, PUJANA_BRCA1_PCC_NETWORK: 0.05088
Pathway_size 2130
  Observed: number of genes in pathway CYTOPLASM: 83
  Ratio observed/pathway size, CYTOPLASM: 0.03897
